Assay results published in the NIST ThermoML archive (doi:10.1016/j.fluid.2006.07.015).
Numbers after ± are expanded uncertainties.

Test: activity coefficient (dimensionless); of the first substance listed, at infinite dilution; xn = mol fraction of the nth substance listed
Settings: 101 kPa, Liquid, Chromatography, x1 = 0

activity coefficient (373.15 K)	activity coefficient (388.15 K)	activity coefficient (403.15 K)	activity coefficient (418.15 K)	activity coefficient (433.15 K)	Structure (SMILES)
0.399 ± 0.034	0.401 ± 0.034	0.403 ± 0.034	0.404 ± 0.034	0.406 ± 0.034	CCCCCCCCC [nonane] + CCCCCCCCCCCCCCCCCCC(CCCCCCCCCCCCCCCCCC)CCCCC(CCCCCCCCCCCCCCCCCC)CCCCCCCCCCCCCCCCCC
0.411 ± 0.034	0.407 ± 0.034	0.401 ± 0.034	0.399 ± 0.034	0.398 ± 0.034	C#CCCCCC [1-heptyne] + CCCCCCCCCCCCCCCCCCC(CCCCCCCCCCCCCCCCCC)CCCCC(CCCCCCCCCCCCCCCCCC)CCCCCCCCCCCCCCCCCC
0.436 ± 0.033	0.429 ± 0.034	0.424 ± 0.034	0.421 ± 0.034	0.416 ± 0.034	CCCC#CCCC [4-octyne] + CCCCCCCCCCCCCCCCCCC(CCCCCCCCCCCCCCCCCC)CCCCC(CCCCCCCCCCCCCCCCCC)CCCCCCCCCCCCCCCCCC
0.374 ± 0.034	0.374 ± 0.034	0.374 ± 0.034	0.375 ± 0.034	0.377 ± 0.034	C=CCCCCCC [oct-1-ene] + CCCCCCCCCCCCCCCCCCC(CCCCCCCCCCCCCCCCCC)CCCCC(CCCCCCCCCCCCCCCCCC)CCCCCCCCCCCCCCCCCC
0.479 ± 0.033	0.479 ± 0.033	0.479 ± 0.033	0.48 ± 0.033	0.481 ± 0.033	CCCCCCCCCCCCC [tridecane] + CCCCCCCCCCCCCCCCCCC(CCCCCCCCCCCCCCCCCC)CCCCC(CCCCCCCCCCCCCCCCCC)CCCCCCCCCCCCCCCCCC
0.378 ± 0.034	0.385 ± 0.034	0.381 ± 0.034	0.38 ± 0.034	0.376 ± 0.034	CCCCCc1ccccc1 [pentylbenzene] + CCCCCCCCCCCCCCCCCCC(CCCCCCCCCCCCCCCCCC)CCCCC(CCCCCCCCCCCCCCCCCC)CCCCCCCCCCCCCCCCCC
0.384 ± 0.034	0.397 ± 0.034	0.4 ± 0.034	0.392 ± 0.034	0.386 ± 0.034	c1ccc2ccccc2c1 [naphthalene] + CCCCCCCCCCCCCCCCCCC(CCCCCCCCCCCCCCCCCC)CCCCC(CCCCCCCCCCCCCCCCCC)CCCCCCCCCCCCCCCCCC
0.397 ± 0.034	0.401 ± 0.034	0.401 ± 0.034	0.405 ± 0.034	0.406 ± 0.034	CC(C)CC(C)(C)C [2,2,4-trimethylpentane] + CCCCCCCCCCCCCCCCCCC(CCCCCCCCCCCCCCCCCC)CCCCC(CCCCCCCCCCCCCCCCCC)CCCCCCCCCCCCCCCCCC
0.38 ± 0.034	0.381 ± 0.034	0.382 ± 0.034	0.384 ± 0.034	0.386 ± 0.034	CCCCCCCC [octane] + CCCCCCCCCCCCCCCCCCC(CCCCCCCCCCCCCCCCCC)CCCCC(CCCCCCCCCCCCCCCCCC)CCCCCCCCCCCCCCCCCC
0.411 ± 0.034	0.413 ± 0.034	0.413 ± 0.034	0.416 ± 0.034	0.418 ± 0.034	C=CCCCCCCCC [1-decene] + CCCCCCCCCCCCCCCCCCC(CCCCCCCCCCCCCCCCCC)CCCCC(CCCCCCCCCCCCCCCCCC)CCCCCCCCCCCCCCCCCC
0.288 ± 0.036	0.295 ± 0.036	0.297 ± 0.036	0.298 ± 0.036	0.299 ± 0.036	C[C@H]1CC[C@H](C)CC1 [trans-1,4-dimethylcyclohexane] + CCCCCCCCCCCCCCCCCCC(CCCCCCCCCCCCCCCCCC)CCCCC(CCCCCCCCCCCCCCCCCC)CCCCCCCCCCCCCCCCCC
0.314 ± 0.035	0.315 ± 0.035	0.313 ± 0.035	0.304 ± 0.035	0.304 ± 0.035	CCc1ccccc1 [ethylbenzene] + CCCCCCCCCCCCCCCCCCC(CCCCCCCCCCCCCCCCCC)CCCCC(CCCCCCCCCCCCCCCCCC)CCCCCCCCCCCCCCCCCC
0.436 ± 0.033	0.438 ± 0.033	0.44 ± 0.033	0.442 ± 0.033	0.444 ± 0.033	CCCCCCCCCCC [undecane] + CCCCCCCCCCCCCCCCCCC(CCCCCCCCCCCCCCCCCC)CCCCC(CCCCCCCCCCCCCCCCCC)CCCCCCCCCCCCCCCCCC
0.394 ± 0.034	0.396 ± 0.034	0.396 ± 0.034	0.398 ± 0.034	0.405 ± 0.034	CCC(C)CC(C)C (stereo not given) [2,4-dimethylhexane] + CCCCCCCCCCCCCCCCCCC(CCCCCCCCCCCCCCCCCC)CCCCC(CCCCCCCCCCCCCCCCCC)CCCCCCCCCCCCCCCCCC
0.492 ± 0.033	0.493 ± 0.033	0.494 ± 0.033	0.495 ± 0.033	0.495 ± 0.033	CCCCCCCCCCCCCC [tetradecane] + CCCCCCCCCCCCCCCCCCC(CCCCCCCCCCCCCCCCCC)CCCCC(CCCCCCCCCCCCCCCCCC)CCCCCCCCCCCCCCCCCC
0.39 ± 0.034	0.378 ± 0.034	0.37 ± 0.034	0.364 ± 0.035	0.36 ± 0.035	C#CCCCC [1-hexyne] + CCCCCCCCCCCCCCCCCCC(CCCCCCCCCCCCCCCCCC)CCCCC(CCCCCCCCCCCCCCCCCC)CCCCCCCCCCCCCCCCCC
0.267 ± 0.036	0.278 ± 0.036	0.276 ± 0.036	0.273 ± 0.036	0.277 ± 0.036	C1CC[C@@H]2CCC[C@H]2C1 [trans-bicyclo[4.3.0]nonane] + CCCCCCCCCCCCCCCCCCC(CCCCCCCCCCCCCCCCCC)CCCCC(CCCCCCCCCCCCCCCCCC)CCCCCCCCCCCCCCCCCC
0.354 ± 0.035	0.355 ± 0.035	0.356 ± 0.035	0.357 ± 0.035	0.359 ± 0.035	C=CCCCCC [1-heptene] + CCCCCCCCCCCCCCCCCCC(CCCCCCCCCCCCCCCCCC)CCCCC(CCCCCCCCCCCCCCCCCC)CCCCCCCCCCCCCCCCCC
0.467 ± 0.033	0.466 ± 0.033	0.466 ± 0.033	0.467 ± 0.033	0.468 ± 0.033	C=CCCCCCCCCCCC [1-tridecene] + CCCCCCCCCCCCCCCCCCC(CCCCCCCCCCCCCCCCCC)CCCCC(CCCCCCCCCCCCCCCCCC)CCCCCCCCCCCCCCCCCC
0.269 ± 0.036	0.266 ± 0.036	0.263 ± 0.036	0.26 ± 0.036	0.258 ± 0.036	c1ccccc1 [benzene] + CCCCCCCCCCCCCCCCCCC(CCCCCCCCCCCCCCCCCC)CCCCC(CCCCCCCCCCCCCCCCCC)CCCCCCCCCCCCCCCCCC
0.34 ± 0.035	0.345 ± 0.035	0.348 ± 0.035	0.349 ± 0.035	0.355 ± 0.035	CC(C)C(C)(C)C [2,2,3-trimethylbutane] + CCCCCCCCCCCCCCCCCCC(CCCCCCCCCCCCCCCCCC)CCCCC(CCCCCCCCCCCCCCCCCC)CCCCCCCCCCCCCCCCCC
0.354 ± 0.035	0.355 ± 0.035	0.356 ± 0.035	0.357 ± 0.035	0.359 ± 0.035	C=CCCCC [hex-1-ene] + CCCCCCCCCCCCCCCCCCC(CCCCCCCCCCCCCCCCCC)CCCCC(CCCCCCCCCCCCCCCCCC)CCCCCCCCCCCCCCCCCC
0.378 ± 0.034	0.377 ± 0.034	0.377 ± 0.034	0.378 ± 0.034	0.38 ± 0.034	CC#CCCC [2-hexyne] + CCCCCCCCCCCCCCCCCCC(CCCCCCCCCCCCCCCCCC)CCCCC(CCCCCCCCCCCCCCCCCC)CCCCCCCCCCCCCCCCCC
0.344 ± 0.035	0.346 ± 0.035	0.348 ± 0.035	0.351 ± 0.035	0.355 ± 0.035	CCCCCC [hexane] + CCCCCCCCCCCCCCCCCCC(CCCCCCCCCCCCCCCCCC)CCCCC(CCCCCCCCCCCCCCCCCC)CCCCCCCCCCCCCCCCCC
0.447 ± 0.033	0.449 ± 0.033	0.453 ± 0.033	0.453 ± 0.033	0.455 ± 0.033	C=CCCCCCCCCCC [1-dodecene] + CCCCCCCCCCCCCCCCCCC(CCCCCCCCCCCCCCCCCC)CCCCC(CCCCCCCCCCCCCCCCCC)CCCCCCCCCCCCCCCCCC
0.353 ± 0.035	0.357 ± 0.035	0.36 ± 0.035	0.362 ± 0.035	0.366 ± 0.035	CCC(C)C(C)CC (stereo not given) [3,4-dimethylhexane] + CCCCCCCCCCCCCCCCCCC(CCCCCCCCCCCCCCCCCC)CCCCC(CCCCCCCCCCCCCCCCCC)CCCCCCCCCCCCCCCCCC
0.252 ± 0.036	0.257 ± 0.036	0.256 ± 0.036	0.253 ± 0.036	0.255 ± 0.036	C1CCCCCC1 [cycloheptane] + CCCCCCCCCCCCCCCCCCC(CCCCCCCCCCCCCCCCCC)CCCCC(CCCCCCCCCCCCCCCCCC)CCCCCCCCCCCCCCCCCC

Structure (SMILES)	activity coefficient (373.15 K)	activity coefficient (388.15 K)	activity coefficient (403.15 K)	activity coefficient (418.15 K)	activity coefficient (433.15 K)
Cc1ccccc1 [toluene] + CCCCCCCCCCCCCCCCCCC(CCCCCCCCCCCCCCCCCC)CCCCC(CCCCCCCCCCCCCCCCCC)CCCCCCCCCCCCCCCCCC	0.284 ± 0.036	0.284 ± 0.036	0.282 ± 0.036	0.278 ± 0.036	0.275 ± 0.036
CCCCc1ccccc1 [butylbenzene] + CCCCCCCCCCCCCCCCCCC(CCCCCCCCCCCCCCCCCC)CCCCC(CCCCCCCCCCCCCCCCCC)CCCCCCCCCCCCCCCCCC	0.357 ± 0.035	0.362 ± 0.035	0.359 ± 0.035	0.358 ± 0.035	0.354 ± 0.035
C1CC[C@H]2CCCC[C@@H]2C1 [trans-decahydronaphthalene] + CCCCCCCCCCCCCCCCCCC(CCCCCCCCCCCCCCCCCC)CCCCC(CCCCCCCCCCCCCCCCCC)CCCCCCCCCCCCCCCCCC	0.268 ± 0.036	0.279 ± 0.036	0.283 ± 0.036	0.28 ± 0.036	0.287 ± 0.036
